Laboratory results as given in PubChem BioAssay AID1963967 (Molecular Pharmacology Branch, DTP, NCI, 2024).

System: 855422-203-R-J1-PDC spheroids with HUVEC/MSC, viability
Test: Anticancer human tumor 855422-203-R-J1-PDC patient-derived bladder carcinoma cell line growth inhibition [PI3K]
Details: for IC50: curve of first compound; for viability, T/C: stronger effect = lower value
Outline: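 Agents were dosed from a top concentration near clinical Cmax (otherwise 10 microM) in half-log decrements, alone or combined with PI3K inhibitors. The spheroids contain tumor cells plus endothelial (HUVEC) and MSC stroma; viability is measured.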

[1] = second compound 0.0316 µM, first compound 0.0316 µM
[2] = second compound 0.0316 µM, first compound 0.1 µM
[3] = second compound 0.0316 µM, first compound 0.316 µM
[4] = second compound 0.0316 µM, first compound 1 µM
[5] = second compound 0.1 µM, first compound 0.0316 µM
[6] = second compound 0.1 µM, first compound 0.1 µM
[7] = second compound 0.1 µM, first compound 0.316 µM
[8] = second compound 0.1 µM, first compound 1 µM
[9] = second compound 0.316 µM, first compound 0.0316 µM
[10] = second compound 0.316 µM, first compound 0.1 µM
[11] = second compound 0.316 µM, first compound 0.316 µM
[12] = second compound 0.316 µM, first compound 1 µM
[13] = second compound 1 µM, first compound 0.0316 µM
[14] = second compound 1 µM, first compound 0.1 µM
[15] = second compound 1 µM, first compound 0.316 µM
[16] = second compound 1 µM, first compound 1 µM
[17] = second compound 0.00316 µM, first compound 0.00316 µM
[18] = second compound 0.00316 µM, first compound 0.01 µM
[19] = second compound 0.00316 µM, first compound 0.0316 µM
[20] = second compound 0.00316 µM, first compound 0.1 µM
[21] = second compound 0.01 µM, first compound 0.00316 µM
[22] = second compound 0.01 µM, first compound 0.01 µM
[23] = second compound 0.01 µM, first compound 0.0316 µM
[24] = second compound 0.01 µM, first compound 0.1 µM
[25] = second compound 0.0316 µM, first compound 0.00316 µM
[26] = second compound 0.0316 µM, first compound 0.01 µM
[27] = second compound 0.1 µM, first compound 0.00316 µM
[28] = second compound 0.1 µM, first compound 0.01 µM
[29] = second compound 0.316 µM, first compound 0.00316 µM
[30] = second compound 0.316 µM, first compound 0.01 µM
[31] = second compound 1 µM, first compound 0.00316 µM
[32] = second compound 1 µM, first compound 0.01 µM
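Note: agents incubated with spheroids for one week before read-out.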
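Throughout, for viability, T/C: 100% = DMSO vehicle-treated control wells.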

Cn1nccc1Nc1nccc(-c2ccn(C(CO)c3ccc(Cl)c(F)c3)c(=O)c2)n1 (stereo unspecified) + Cc1nc(NC(=O)N2CCCC2C(N)=O)sc1-c1ccnc(C(C)(C)C(F)(F)F)c1
IC50 (second compound 0.0316 µM): 9480 nM
IC50 (second compound 0.1 µM): 8220 nM
IC50 (second compound 0.316 µM): 6990 nM
IC50 (second compound 1 µM): 4270 nM
IC50 (second compound 3.16 µM): < 31.6 nM
IC50 (second compound 10 µM): < 31.6 nM
viability, T/C [1]: 106%
viability, T/C [2]: 95.9%
viability, T/C [3]: 103%
viability, T/C [4]: 89%
viability, T/C (second compound 0.0316 µM, first compound 3.16 µM): 86.4%
viability, T/C (second compound 0.0316 µM, first compound 10 µM): 47.5%
viability, T/C [5]: 99.3%
viability, T/C [6]: 93.3%
viability, T/C [7]: 94.8%
viability, T/C [8]: 85.9%
viability, T/C (second compound 0.1 µM, first compound 3.16 µM): 85%
viability, T/C (second compound 0.1 µM, first compound 10 µM): 43.2%
viability, T/C [9]: 96%
viability, T/C [10]: 89.3%
viability, T/C [11]: 96.4%
viability, T/C [12]: 92.2%
viability, T/C (second compound 0.316 µM, first compound 3.16 µM): 87.9%
viability, T/C (second compound 0.316 µM, first compound 10 µM): 32.8%
viability, T/C [13]: 70.1%
viability, T/C [14]: 70.1%
viability, T/C [15]: 63.4%
viability, T/C [16]: 67.5%
viability, T/C (second compound 1 µM, first compound 3.16 µM): 61.5%
viability, T/C (second compound 1 µM, first compound 10 µM): 17.9%
viability, T/C (second compound 3.16 µM, first compound 0.0316 µM): 42.3%
viability, T/C (second compound 3.16 µM, first compound 0.1 µM): 39.6%
viability, T/C (second compound 3.16 µM, first compound 0.316 µM): 40.7%
viability, T/C (second compound 3.16 µM, first compound 1 µM): 35.2%
viability, T/C (second compound 3.16 µM, first compound 3.16 µM): 26.9%
viability, T/C (second compound 3.16 µM, first compound 10 µM): 10.1%
viability, T/C (second compound 10 µM, first compound 0.0316 µM): 24.6%
viability, T/C (second compound 10 µM, first compound 0.1 µM): 21.6%
viability, T/C (second compound 10 µM, first compound 0.316 µM): 19.4%
viability, T/C (second compound 10 µM, first compound 1 µM): 14.4%
viability, T/C (second compound 10 µM, first compound 3.16 µM): 8.05%
viability, T/C (second compound 10 µM, first compound 10 µM): 4.78%

CC(=O)c1c(C)c2cnc(Nc3ccc(N4CCNCC4)cn3)nc2n(C2CCCC2)c1=O + COc1c(OCCCN2CCOCC2)ccc2c3n(c(=NC(=O)c4cnc(N)nc4)nc12)CCN3
IC50 (second compound 0.00316 µM): > 100 nM
IC50 (second compound 0.01 µM): > 100 nM
IC50 (second compound 0.0316 µM): 18.9 nM
IC50 (second compound 0.1 µM): < 0.316 nM
IC50 (second compound 0.316 µM): < 0.316 nM
IC50 (second compound 1 µM): < 0.316 nM
viability, T/C (second compound 0.00316 µM, first compound 0.000316 µM): 91.7%
viability, T/C (second compound 0.00316 µM, first compound 0.001 µM): 101%
viability, T/C [17]: 95.2%
viability, T/C [18]: 98.3%
viability, T/C [19]: 90.5%
viability, T/C [20]: 73.5%
viability, T/C (second compound 0.01 µM, first compound 0.000316 µM): 83.1%
viability, T/C (second compound 0.01 µM, first compound 0.001 µM): 88.4%
viability, T/C [21]: 88.2%
viability, T/C [22]: 84.7%
viability, T/C [23]: 86.6%
viability, T/C [24]: 56.5%
viability, T/C (second compound 0.0316 µM, first compound 0.000316 µM): 67.9%
viability, T/C (second compound 0.0316 µM, first compound 0.001 µM): 63.5%
viability, T/C [25]: 58.4%
viability, T/C [26]: 55.2%
viability, T/C [1]: 47.6%
viability, T/C [2]: 26.9%
viability, T/C (second compound 0.1 µM, first compound 0.000316 µM): 26.8%
viability, T/C (second compound 0.1 µM, first compound 0.001 µM): 27.5%
viability, T/C [27]: 22.6%
viability, T/C [28]: 25.4%
viability, T/C [5]: 20%
viability, T/C [6]: 12.1%
viability, T/C (second compound 0.316 µM, first compound 0.000316 µM): 10.4%
viability, T/C (second compound 0.316 µM, first compound 0.001 µM): 7.97%
viability, T/C [29]: 9.28%
viability, T/C [30]: 8.98%
viability, T/C [9]: 6.22%
viability, T/C [10]: 5.08%
viability, T/C (second compound 1 µM, first compound 0.000316 µM): 3.62%
viability, T/C (second compound 1 µM, first compound 0.001 µM): 4.81%
viability, T/C [31]: 3.28%
viability, T/C [32]: 3.47%
viability, T/C [13]: 4.56%
viability, T/C [14]: 3.64%

CCN1CCN(Cc2ccc(Nc3ncc(F)c(-c4cc(F)c5nc(C)n(C(C)C)c5c4)n3)nc2)CC1 + COc1c(OCCCN2CCOCC2)ccc2c3n(c(=NC(=O)c4cnc(N)nc4)nc12)CCN3
IC50 (second compound 0.00316 µM): > 1000 nM
IC50 (second compound 0.01 µM): 409 nM
IC50 (second compound 0.0316 µM): 55 nM
IC50 (second compound 0.1 µM): < 3.16 nM
IC50 (second compound 0.316 µM): < 3.16 nM
IC50 (second compound 1 µM): < 3.16 nM
viability, T/C [17]: 95.2%
viability, T/C [18]: 77.9%
viability, T/C [19]: 103%
viability, T/C [20]: 82.6%
viability, T/C (second compound 0.00316 µM, first compound 0.316 µM): 77.6%
viability, T/C (second compound 0.00316 µM, first compound 1 µM): 60.5%
viability, T/C [21]: 87.8%
viability, T/C [22]: 89.9%
viability, T/C [23]: 85.2%
viability, T/C [24]: 71.1%
viability, T/C (second compound 0.01 µM, first compound 0.316 µM): 52.9%
viability, T/C (second compound 0.01 µM, first compound 1 µM): 41.6%
viability, T/C [25]: 64.8%
viability, T/C [26]: 67.6%
viability, T/C [1]: 52.7%
viability, T/C [2]: 45.7%
viability, T/C [3]: 26.7%
viability, T/C [4]: 20.6%
viability, T/C [27]: 28.9%
viability, T/C [28]: 29.3%
viability, T/C [5]: 22.7%
viability, T/C [6]: 15.6%
viability, T/C [7]: 12.2%
viability, T/C [8]: 13.9%
viability, T/C [29]: 11.5%
viability, T/C [30]: 9.97%
viability, T/C [9]: 8.87%
viability, T/C [10]: 7.84%
viability, T/C [11]: 8.06%
viability, T/C [12]: 8.7%
viability, T/C [31]: 4.05%
viability, T/C [32]: 5.98%
viability, T/C [13]: 4.02%
viability, T/C [14]: 4.36%
viability, T/C [15]: 4.5%
viability, T/C [16]: 5.49%
